Test results reported in US20260275395A1, “ENZYMATIC CONVERSION OF D-XYLOSE INTO D-RIBOSE AND D-RIBULOSE-5-PHOSPHATE” (priority 2022, published 2026).

Assays:
[1] = tested on: BpXylA (xylose isomerase); experiment: Effect of metal ions on the thermal stability of BpXylA; type: biochemical, Bacteroides plebeius; settings: 1 mM metal ion; for Relative activity of BpXylA over time with metal ion: 50° C. (Mg^2+: 50° C. or higher), up to 90 minutes
Experimental: To investigate this, the culture was performed with each metal ion corresponding to a concentration of 1 mM together with the enzymes under various temperature conditions. As a result, as shown in [FIG. 4], higher thermal stability was found when the culture was performed with metal ions than when it was performed without metal ions. […] [(b) of FIG. 4 and (c) of FIG. 4].

[2] = target: EcPpk (polyphosphate kinase) (Escherichia coli, UniProt P0A7B1); settings: pre-incubation 4° C. 20 minutes; control: no metal ions added
Experimental: As a result, the highest activity was found at 50° C., as shown in [(a) of FIG. 10]. […] As a result, the highest activity was found in a sodium phosphate buffer (pH 7.0), as shown in [(b) of FIG. 10]. […] The decrease in enzyme activity was calculated by calculating the decrease in relative activity due to heat treatment, using the activity of the enzyme that was not allowed to stand as a control. […] [(d) of FIG. 10].

[3] = tested on: BpXylA (xylose isomerase); experiment: Effect of metal ions on the activity of BpXylA; type: biochemical, Bacteroides plebeius; settings: pre-incubation 4° C. 20 minutes; control: no metal ions added
Experimental: (§1) To investigate the optimal reaction conditions for BpXylA, the effects of optimal reaction temperature, pH, and metal ions were examined. The standard reaction conditions for BpXylA were set to a reaction with 1.09 U/ml BpXylA in 50 mM sodium phosphate (pH 7.0) buffer containing 10 mM D-xylose and 1 mM Mg^2+ at 50° C. for 10 minutes. The optimal reaction conditions for BpXylA described below were all determined by experiments under the standard reaction conditions.
(§2) First, in order to determine the optimal temperature conditions for BpXylA, the reaction was performed under standard reaction conditions at various temperature conditions. […] In order to determine the optimal pH of BpXylA, the reaction was performed while varying the pH using various buffer solutions.

[4] = target: T1, EcAraB (L-ribulokinase) (Escherichia coli, UniProt P08204); experiment: Effect of metal ions on the activity of EcAraB; type: biochemical; set-up: His tag (inferred: pET21a, NotI reverse primer without stop codon, HisTrap purification) (C); T7 tag and vector leader of pET21a (own knowledge: in-frame insertion at SacI keeps the vector's N-terminal leader) (N); made in house; host or cells: E. coli BL21 (DE3); settings: pre-incubation 4° C. 20 minutes; control: no metal ions added
Experimental: To determine the optimal reaction conditions for EcAraB, the optimal reaction temperature, pH, metal ion effects, and thermal stability were examined. […] The amount (mg) of EcAraB that produces 1 μmol of D-ribulose-5-phosphate per minute was defined as one unit.
As a result, as shown in [(a) of FIG. 9], the highest activity was found at 50° C. In order to determine the optimal pH conditions for EcAraB, the reaction was performed while varying the pH using various buffer solutions. […] [(d) of FIG. 9].

[5] = tested on: BpRpiB (D-ribose-5-phosphate isomerase); experiment: Effect of metal ions on the activity of BpRpiB; type: biochemical, Bacteroides plebeius; settings: pre-incubation 4° C. 20 minutes; control: no metal ions added
Experimental: (§3) To determine the optimal reaction conditions for BpRpiB, the optimal reaction temperature, pH, metal ion effects, and thermal stability were examined. […] The amount (mg) of BpRpiB that produces 1 μmol of D-ribulose per minute was defined as one unit.
(§4) First, in order to determine the optimal temperature conditions for BpRpiB, the reaction was performed under standard reaction conditions at various temperature conditions. […] In order to investigate the optimal pH for the activity of BpRpiB, the reaction was performed by changing the pH using various buffer solutions. […] [(d) of FIG. 5].

[6] = tested on: BpRpiB (D-ribose-5-phosphate isomerase); experiment: Substrate specificity of BpRpiB; type: biochemical, Bacteroides plebeius; settings: substrate 2 mM, standard reaction conditions (50° C., 10 minutes)
Text: as §3
BpRpiB used in the present invention is known to be an enzyme that converts the substrate D-ribulose-5-phosphate, which is originally a phosphorylated sugar, into D-ribose-5-phosphate. Therefore, in the present invention, in order to confirm the activity of BpRpiB for D-ribose and D-ribulose as well as D-ribulose-5-phosphate and D-ribose-5-phosphate, which are the original substrates of BpRpiB, the substrate specificity of BpRpiB for various aldo- and keto-sugars was examined [Table 2]. The experiment was performed using various aldo- and keto-sugars as substrates at a concentration of 2 mM under standard reaction conditions, and the relative activity against other substrates was expressed based on the activity against D-xylose. […] Therefore, in the present invention, in order to produce D-ribose from D-xylose, BpRpiB is sufficiently applicable as an enzyme that converts D-ribulose into D-ribose, which is the final reaction step of the multi-enzyme process.

[7] = tested on: BpXylA (xylose isomerase); experiment: Substrate specificity of BpXylA; type: biochemical, Bacteroides plebeius; settings: substrate 2 mM, standard reaction conditions (50 mM sodium phosphate pH 7.0, 1 mM Mg^2+, 50° C., 10 minutes); based on the activity for D-xylose
Experimental: as §1
In order to determine whether BpXylA used in the present invention is a suitable enzyme for producing D-ribose from D-xylose, the substrate specificity of BpXylA for various aldo- and keto-sugars was examined [Table 1]. The experiment was conducted using various aldo- and keto-sugars as substrates at a concentration of 2 mM under the standard reaction conditions, and the relative activity against other substrates was shown based on the activity for D-xylose. […] Therefore, BpXylA is sufficiently applicable for producing D-ribose from D-xylose in the present invention.

[8] = target: T1, EcAraB (L-ribulokinase); settings: previous study; cited from earlier work
[9] = tested on: BpXylA (xylose isomerase); experiment: Thermal stability of BpXylA; type: physicochemical, Bacteroides plebeius
[10] = tested on: BpXylA (xylose isomerase); experiment: Optimal reaction temperature and pH of BpXylA; type: biochemical, Bacteroides plebeius
Experimental: as §1, §2

[11] = tested on: BpRpiB (D-ribose-5-phosphate isomerase); experiment: Thermal stability of BpRpiB; type: physicochemical, Bacteroides plebeius
Experimental: as §3, §4

[12] = target: T2, AtDpe (ketose 3-epimerase) (Agrobacterium fabrum, UniProt A9CH28); settings: 50° C. compared to 45° C.; previous study; cited from earlier work
T2 sequence (A9CH28 whole entry, looked up): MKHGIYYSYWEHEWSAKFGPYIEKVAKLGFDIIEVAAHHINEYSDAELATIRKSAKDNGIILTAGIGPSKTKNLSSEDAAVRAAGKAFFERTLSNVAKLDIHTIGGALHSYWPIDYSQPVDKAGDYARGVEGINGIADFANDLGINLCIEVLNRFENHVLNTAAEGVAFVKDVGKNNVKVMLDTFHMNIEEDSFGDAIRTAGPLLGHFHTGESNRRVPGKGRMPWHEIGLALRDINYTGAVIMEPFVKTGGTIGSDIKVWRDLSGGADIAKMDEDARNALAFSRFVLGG

## [Co+2] [Co^2+]
[1]
  Relative activity of BpXylA over time with metal ion: stably maintained
[2]
  Relative activity with metal ion added: 176.14±24.10%
[3]
  Effect of metal ion on enzyme activity: significantly increased
[4]
  Relative activity with metal ion added: 435.51±110.20%

## [Cu+2] [Cu^2+]
[5]
  Effect of metal ion on enzyme activity: significantly inhibited

## O=C[C@@H](O)[C@H](O)[C@H](O)CO [D-Arabinose]
[6]
  Relative activity (%): Not detected
[7]
  Relative activity (%): Not detected

## O=C(CO)[C@@H](O)[C@H](O)[C@H](O)CO [D-Fructose]
[6]
  Relative activity (%): Not detected
[7]
  Relative activity (%): Not detected

## O=C[C@H](O)[C@@H](O)[C@H](O)[C@H](O)CO [D-Glucose]
[6]
  Relative activity (%): Not detected
[7]
  Relative activity (%): Not detected

## O=C[C@@H](O)[C@@H](O)[C@H](O)[C@H](O)CO [D-Mannose]
[6]
  Relative activity (%): Not detected
[7]
  Relative activity (%): Not detected

## O=C[C@H](O)[C@H](O)[C@H](O)COP(=O)(O)O [D-Ribose-5-phosphate]
[6]
  Relative activity (%): 933.9 ± 11.7%

## O=C[C@H](O)[C@H](O)[C@H](O)CO [D-Ribose]
[6]
  Relative activity (%): 79.1 ± 0.4%
[7]
  Relative activity (%): 33.2 ± 1.1%

## O=C(CO)[C@H](O)[C@H](O)COP(=O)(O)O [D-Ribulose-5-phosphate]
[6]
  Relative activity (%): 924.4 ± 33.7%

## O=C(CO)[C@H](O)[C@H](O)CO [D-Ribulose]
[6]
  Relative activity (%): 100 ± 4.8%
[7]
  Relative activity (%): 13.9 ± 13.8%

## O=C(CO)[C@@H](O)[C@@H](O)[C@H](O)CO [D-Tagatose]
[6]
  Relative activity (%): Not detected
[7]
  Relative activity (%): Not detected

## O=C[C@H](O)[C@@H](O)[C@H](O)CO [D-Xylose]
[6]
  Relative activity (%): Not detected
[7]
  Relative activity (%): 100 ± 2.2%

## O=C(CO)[C@@H](O)[C@H](O)CO [D-Xylulose]
[8]
  Activity relative to the activity against D-ribulose: 2.44%
[6]
  Relative activity (%): Not detected
[7]
  Relative activity (%): 156.5 ± 2.2%

## O=C[C@H](O)[C@@H](O)[C@@H](O)CO [L-Arabinose]
[6]
  Relative activity (%): Not detected
[7]
  Relative activity (%): Not detected

## O=C(CO)[C@@H](O)[C@H](O)[C@@H](O)CO [L-Sorbose]
[6]
  Relative activity (%): Not detected
[7]
  Relative activity (%): Not detected

## [Mg+2] [Mg^2+]
[1]
  Relative activity of BpXylA over time with metal ion: decreased over time
[1]; versus without metal ions
  Thermal stability of BpXylA with metal ion: thermal stability increased
[2]
  Relative activity with metal ion added: 202.12±7.46%
[3]
  Effect of metal ion on enzyme activity: significantly increased
  Relative activity with metal ion added: 876.98±35.30%
[4]
  Relative activity with metal ion added: 614.62±42.14%

## [Mn+2] [Mn^2+]
[1]
  Relative activity of BpXylA over time with metal ion: stably maintained
[1]; 60° C.
  Relative activity of BpXylA with metal ion: stable
[2]
  Relative activity with metal ion added: 161.48±5.53%
[3]
  Effect of metal ion on enzyme activity: significantly increased
[4]
  Relative activity with metal ion added: 286.47±21.62%

## [Zn+2] [Zn^2+]
[5]
  Effect of metal ion on enzyme activity: significantly inhibited

## BpXylA: xylose isomerase derived from Bacteroides plebeius, SEQ ID NO: 1
[9]; 40° C., up to 90 minutes
  Enzyme activity after heat treatment: did not significantly decrease
[9]; 50° C. for 15 minutes, control: enzyme not allowed to stand
  Relative activity after heat treatment: about 29.29±1.43%
[10]; sodium phosphate buffer
  Optimal pH: 7.0
[10]; standard reaction conditions, various temperatures
  Optimal temperature for enzyme activity: 50 °C

B1: BpRpiB: D-ribose-5-phosphate isomerase derived from Bacteroides plebeius, SEQ ID NO: 5 (protein)
chain: MKTIGLASDHAGFELKQYVKKWLEAKGWEYKDFGTYTTDSCDYPDFAHPLALAVENGECYPGIAICGSGEGIGITLNKHQGIRAALCWIPEIAHLARQHNNANVLVMPGRFIDEAMADKIMTEFFTTDFEGGRHQARIDKIPVR
modifications: BpRpiB
[11]; 70° C.
  Activity after heat treatment: rapidly decreased
[11]; up to 60° C.
  Overall activity after heat treatment: stable

B2: AtDpe: ketose 3-epimerase derived from Agarobacterium tumefaciens, SEQ ID NO: 3 (protein)
chain: T2 sequence (A9CH28 whole entry, looked up)
modifications: AtDpe
[12]
  Thermal stability: decreased rapidly
